Results on four molecules are retold here after article PMC10791743, “Selective CK1α degraders exert antiproliferative activity against a broad range of human cancer cell lines” (Nature Communications, 2024).

Values joined by “and” are separate entries in the source; they are usually repeats but may differ in a detail not shown here. Identical values can stand only once.

In series [1] the test system is panel of 9 human cancer cell lines (HD-MB03, MB004, MB002, MHH-CALL4, MOLM-13, TF-1, HEL, OCI-AML3, AML193). The series can be described thus: Molecular glue library screening, CellTiter-Glo cell viability, 72 h. Format: cell-based. The settings on record: CTG, dose-response. The procedure: We screened our molecular glue library (3630 compounds) against a panel of 9 pediatric cancer cell lines to identify molecules displaying cell-selective sensitivities. In addition to the four cell lines we previously described (MB002, MB004, HD-MB03, and MHHCALL-4)[27], we included five additional AML cell lines (MOLM-13, TF-1, HEL, OCI-AML3, and AML193) to cover a broader range of genetic diversity and cancer vulnerabilities. The library screening was performed in high throughput (384-well plates) by incubating the cells with compounds for 72 h and assessing cell viability via CellTiter-Glo (CTG) in a dose–response manner, as reported previously.
The primary screen was performed in 384-well format using the CellTiter Glo (CTG) luminescent cell viability assay (Promega) as previously described. 3630 compounds from the St. Jude proprietary molecular glue library were screened against 9 human cancer cell lines (HD-MB03, MB004, MB002, MHH-CALL4, MOLM-13, TF-1, HEL, OCI-AML3, AML193). Each cell line was cultured in the complete medium recommended by the vendor and seeded in Corning 8804 BC white 384-well assay plates at densities of 1000, 1000, 1500, 7500, 1250, 156, 625, 1250, 1250 cells per well for HD-MB03, MB004, MB002, MHH-CALL4, MOLM-13, TF-1, HEL, OCI-AML, AML193, respectively. After overnight incubation at 37 °C in a humidified 5% CO2 incubator, cells were treated with compounds in dose–response format using a Pintool on a Biomek FX^P Laboratory Automation Workstation (Beckman Coulter). After 72 h of incubation, cell proliferation was assessed using a CellTiter-Glo (CTG) luminescent cell viability assay (Promega) according to the manufacturer’s instructions. Luminescence signal was measured using an EnVision plate reader (PerkinElmer).

In a further series the test system is MOLM-13 cells. The series can be described thus: MOLM-13 cell viability assay (CTG, 72 h). Format: cell-based, human. Set-up: key to Cell viability in MOLM-13 cells / cell viability, dose-response replicate values: % viability = 100 − % activity, normalized to controls. The settings on record: for Cell viability in MOLM-13 cells: Lenalidomide series. The procedure:
The primary screen was performed in 384-well format using the CellTiter Glo (CTG) luminescent cell viability assay (Promega) as previously described. […] After overnight incubation at 37 °C in a humidified 5% CO2 incubator, cells were treated with compounds in dose–response format using a Pintool on a Biomek FX^P Laboratory Automation Workstation (Beckman Coulter). […] Luminescence signal was measured using an EnVision plate reader (PerkinElmer). […]
number per well and incubated overnight at 37 °C in a humidified 5 % CO2 incubator. Compounds were transferred to the assay plate from a dose-response plate using a Labcyte Echo 650 Acoustic Liquid Handler (Beckman Coulter , USA). […]
using Promega’s CellTiter-Glo reagent according to the manufacturer’s recommendation.
Luminescence was measured on the Envision plate reader (PerkinElmer, USA). Raw luminescence relative light unit (RLU) values for each compound at each concentration were normalized to obtain % activity using the following equation (1): 100 × [(mean(negctrl) – compound)/(mean (negctrl) – mean (posctrl))]. The % activity was converted to % viability using the following equation (2):
(100 – % activity), and then pooled from replicate experiments prior to fitting. Here, negctrl and posctrl refer to the negative (DMSO) and positive controls (staurosporine) on each plate. Dose-response curves were fit to the Hill equation using the GraphPad Prism (version 10). […]

Turning to `Cc1ccc(NC(=O)NCc2ccc3c(c2)CN(C2CCC(=O)NC2=O)C3=O)cc1Cl` (centres unmarked) [CC-885], the “Cell viability across the panel of AL and MB cell lines” value (from here on “Cell viability across the panel”) in series [1] is “cytotoxic to all cell lines in the panel”.

`O=C1CCC(N2C(=O)c3ccc(NS(=O)(=O)c4ccccc4OC(F)(F)F)cc3C2=O)C(=O)N1` (centres unmarked) [SJ6986]: in series [1], the “Cell viability across the panel” value is given as “cytotoxic to all cell lines in the panel”.

On to `Nc1cccc2c1CN(C1CCC(=O)NC1=O)C2=O` (centres unmarked) [lenalidomide, reference compound], for which, in the series with MOLM-13 cells (CTG 72 h), the “Effect on MOLM-13 cell viability (cytotoxicity)” value is given as “did not show appreciable cytotoxicity”. For the same molecule, the “Cell viability in MOLM-13 cells” value was 109.633 and 88.9306 and 94.0401 in the series with MOLM-13 cells (Conc 0.00055545); 93.576 and 90.3639 and 96.1559 in the series with MOLM-13 cells (Conc 0.00166636); 90.3167 and 93.3429 and 87.1 with MOLM-13 cells (Conc 0.00499909); 104.685 and 79.7406 and 92.7317 in the series on MOLM-13 cells (Conc 0.0149973); 87.2291 and 84.4121 and 81.9827 in the series with MOLM-13 cells (Conc 0.0449918); 84.7339 and 87.0092 and 84.0481 with MOLM-13 cells (Conc 0.134975). In addition, the “Cell viability in MOLM-13 cells” value was 83.6134 and 73.5361 and 80.3173 with MOLM-13 cells (Conc 0.404926); 75.0522 and 81.9691 and 77.2827 in the series with MOLM-13 cells (Conc 1.21478); 84.7767 and 72.5751 and 71.171 with MOLM-13 cells (Conc 3.64433). Moreover, in series [1], the “Cell viability across the panel” value was “inactive”.

For `Nc1cccc2c1C(=O)N(C1CCC(=O)NC1=O)C2=O` (centres unmarked) [pomalidomide], in series [1], the “Cell viability across the panel” value is “inactive”.
